Data taken from patent publication US20250382588A1, “CHIMERIC AAV AND USES THEREOF” (priority 2023, published 2025).

Columns and labels:
[1] = Locomotion test in naive macaques after CNO; type: in vivo
Experimental: The locomotion tests for monkeys were conducted in a custom-made observation cage (100 cm×100 cm×100 cm). The top and front of the cage were made of toughened glass in order to gain a clear view for behavioral recording. Monkeys were habituated to the observation cage by placing them inside for 30 minutes on three separate days.
For monkeys injected with AAV8R12-G88P3-HA-hM3Dq, CNO was intracranially infused into the dorsomedial caudate through the recording chamber. To infuse while the animal was awake, the monkey was trained to sit in a primate chair specially designed with its head fixed to the primate chair by a mask made of thermoplastic materials. Injections were conducted through a 33-Gauge needle connected to a 250 μL syringe via a polyethylene pipe (Hamilton, Neuros). […] The needle was held for 5 minutes for drug diffusion before retraction. […] Videos capturing the subjects' behavior were recorded for at least 90 minutes. Animal behaviors from 30-90 minutes after saline/CNO infusion were further analyzed and quantified.
For rotation analysis, only movements that occurred lower than 30 cm on the z-axis were counted. To determine the direction of the rotation, we first computed the center for the rotation data in the x-y plane as (x0, y0) by averaging all data points, and then we computed the angle relative to (x0, y0) for each time point by the following formula:
where θi represents the rotating angle at time i, and (xi, yi) represents the x-y coordinate at time i. We then calculated the change of rotating angle as Δθi=θi−θi-1. For right nigral injections, when Δθ<0, the direction of the rotation was anticlockwise and was labeled as a contraversive rotation. When Δθ>0, the direction of the rotation was clockwise and was labeled as an ipsiversive rotation. The raw data were analyzed and plotted through a custom R package. Code is available on Github (github.com/chenyef/PD_ana/blob/main/Behavior_ana.txt).

c-Fos+ cells in the SNr = experiment: c-Fos staining in the SNr after CNO; type: in vivo, mice; conditions: AAV8R12-G88P3-HA-hM3Dq
rM3Ds = molecular target: T1, rM3Ds (Rattus norvegicus, UniProt P08483, A177S/A238G/A489L/DEL261-437/DEL441-478/E258S/I253V/I483M/INS256[…]/K178L/K182A/K255R/K484R/K486H/L173F/L482A/M480V/R171S/R176Q/R179M/S481M/T174R/T181R/T257A/Y148C); experiment: Electrophysiological recording in caudate/putamen of MPP+ lesioned macaques after CNO or DCZ; type: in vivo
T1 sequence (P08483 with tags, fused parts or gaps Y148C/R171S/L173F/T174R/R176Q/A177S/K178L/R179M/T181R/K182A/A238G/I253V/K255R/INS256[…]/T257A/E258S/DEL261-437/DEL441-478/M480V/S481M/L482A/I483M/K484R/K486H/A489L): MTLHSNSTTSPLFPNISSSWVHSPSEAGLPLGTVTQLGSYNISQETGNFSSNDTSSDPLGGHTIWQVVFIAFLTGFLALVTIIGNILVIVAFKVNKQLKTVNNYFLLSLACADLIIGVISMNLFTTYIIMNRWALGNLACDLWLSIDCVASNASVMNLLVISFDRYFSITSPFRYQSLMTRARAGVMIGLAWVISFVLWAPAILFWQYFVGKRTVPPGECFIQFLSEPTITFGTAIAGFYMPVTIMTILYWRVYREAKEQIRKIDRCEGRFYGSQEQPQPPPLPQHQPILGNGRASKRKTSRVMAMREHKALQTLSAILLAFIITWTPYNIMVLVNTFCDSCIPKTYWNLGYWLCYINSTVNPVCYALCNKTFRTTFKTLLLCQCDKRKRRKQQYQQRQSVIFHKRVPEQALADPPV
Experimental: Intriguingly, many of the symptoms were greatly reversed after systemic deschloroclozapine (DCZ) administration. DCZ is a potent brain-penetrable agonist for rM3Ds with reduced off-targeting binding compared to CNO, and was administered to activate the DREADD system in the macaque brain.
Electrophysiological recording was performed through a recording chamber while the monkey was anesthetized. Neural responses were recorded by a 16-channel linear probe (Plexon Inc, Uprobe) driven by a mechanical microdrive (Alpha Omega, FlexMT). Signals were passed through a head stage (Plexon Inc, HST/16V-G20 LN) and then split and filtered between 300 Hz and 5 kHz to identify spiking activity with an amplifier system (Plexon Inc, OmniPlex). Detected spikes were then sorted by commercially available software (Plexon Inc, Offline Sorter) for further analysis. To quantify the effect of CNO/DCZ injection, neural activity was recorded for 60 minutes following CNO/DCZ injection. The response time-course for each channel was obtained by counting the spikes within every 10-minute window and then normalizing to the maximal.
To determine the effect of CNO/DCZ injection on the direction of signal change, we performed Pearson correlation between neural responses and time using the ‘corr’ function in Matlab, which generates the correlation coefficient ‘r’ and significant level ‘p’. A neuron was considered to have “Increased” activity when r>0 and p<[…]; and considered to have “Decreased” activity when r<0 and p<0.05. Otherwise, neurons were considered to be “Unchanged” in their neural activities. The responses of all increased neurons were then averaged after being normalized by the maximal response (Crowe et al., 2014; Dai and Wang, 2018; Hirokawa et al., 2019) following CNO/DCZ injection, and then plotted as a function of time to generate the normalized population response.

[2] = caudate/putamen, CNO 36 cells, DCZ 31 cells

C[N+]1([O-])CCN(C2=Nc3cc(Cl)ccc3Nc3ccccc32)CC1 [CNO, clozapine N-oxide]
immobile time (FIG. 11E) ([1]; naive macaques, n=3): 149.8±22.65 | percentage of contraversive and ipsiversive rotation (FIG. 11C) ([1]; naive macaques, n=3): 0.8384±0.4152 | speed of contraversive rotations (FIG. 11G) ([1]; naive macaques, n=3): 39.63±7.092 | speed of ipsiversive rotations (FIG. 11H) ([1]; naive macaques, n=3): 42.79±4.705 | time spending in the higher portion of the observing cages (FIG. 11D) ([1]; naive macaques, n=3): 60.43±4.542 | total distance (FIG. 11F) ([1]; naive macaques, n=3): 59.48±18.65 | behavioral changes in naïve monkeys, in words ([1]; no viral injections): did not induce significant behavioral changes | c-Fos+ cells in the right SNr (c-Fos+ cells in the SNr; CNO intraperitoneal): significant increase | number of nigral c-Fos+ cells (c-Fos+ cells in the SNr; intracranial CNO infusions): No significant changes | neuronal activity in MPP+ lesioned macaques, in words (rM3Ds; anesthetized animals): induced an increase in neuronal activity | cells activated (FIG. 15G) (rM3Ds; [2]): 52.8% | cells inactivated (FIG. 15G) (rM3Ds; [2]): 13.9% | cells unchanged (FIG. 15G) (rM3Ds; [2]): 33.3%
